{"source": "patent US20180296630A1", "about": "“METHODS AND COMPOSITIONS FOR PREVENTING OR TREATING OPHTHALMIC CONDITIONS” (Stealth BioTherapeutics Corp, priority 2012, published 2018)", "key": {"[1]": {"system": "human retinal epithelial cells (HREC)", "assay": "Survival of HRECs in high glucose (Annexin V/PI, flow cytometry)", "assay_type": "cell-based", "conditions": "for survival ratio for HRECs (Q3): 24 hours", "text": "Methods of HREC culture useful in the studies of the present invention are known. See generally, Li B, Tang S B, Zhang G, Chen J H, Li B J. Culture and characterization of human retinal capillary endothelial cell. Chin Ophthal Res 2005; 23: 20-2; Premanand C, Rema M, Sameer M Z, Sujatha M, Balasubramanyam M. Effect of curcumin on proliferation of human retinal endothelial cells under in vitro conditions. Invest Ophthalmol Vis Sci 2006; 47: 2179-84.\nBriefly, HREC cells were divided into three groups: a normal control group; a group administered 30 mM glucose; and a group administered 30 mM glucose+D-Arg-2′,6′-Dmt-Lys-Phe-NH2. Survival of HRECs in high glucose co-treated with different concentrations of D-Arg-2′,6′-Dmt-Lys-Phe-NH2 (10 nM, 100 nM, 1 μM, 10 μM) was measured using an Annexin V+PI assay and flow cytometry. See generally, Koopman, G., Reutelingsperger, C. P., Kuijten, G. A. M., Keehnen, R. M. J., Pals, S. T., and van Oers, M. H. J. 1994. Annexin V for flow cytometric detection of phosphatidylserine expression on B cells undergoing apoptosis. Blood 84: 1415; Homburg, C. H., de Haas, M., von dem Borne, A. E., Verhoeven, A. J., Reutelingsperger, C. P., and Roos, D. 1995. Human neutrophils lose their surface Fc gamma RIII and acquire Annexin V binding sites during apoptosis in vitro. Blood 85: 532; Vermes, I., Haanen, C., Steffens-Nakken, H., and Reutelingsperger, C. 1995. A novel assay for apoptosis—flow cytometric detection of phosphatidylserine expression on early apoptotic cells using fluorescein labelled Annexin V. J. Immunol. Meth. 184: 39; Fadok, V. A., Voelker, D. R., Campbell, P. A., Cohen, J. J., Bratton, D. L., and Henson, P. M. 1992. Exposure of phosphatidylserine on the surface of apoptotic lymphocytes triggers specific recognition and removal by macrophages. J. Immunol. 148: 2207.\nThe survival of HRECs in high glucose co-treated with D-Arg-2′,6′-Dmt-Lys-Phe-NH2 was tested at 24 h and 48 h."}, "[2]": {"system": "STZ and HFD/STZ diabetic rats", "assay": "Inner blood-retinal barrier function (Evans blue extravasation) in diabetic SD rats", "assay_type": "in vivo, Sprague-Dawley rat", "conditions": "compared to rats on a HFD not administered peptide", "method": "FIGS. 10A and 10B are charts showing the integrity of the blood-retinal barrier of normal rats (NRC), diabetic rats, and diabetic rats treated with Phe-D-Arg-Phe-Lys-NH2 (SS-20) or D-Arg-2′,6′-Dmt-Lys-Phe-NH2(SS-31), as analyzed by Evans blue extravasation. (A) diabetes induced by STZ; (B) diabetes induced by HFD/STZ.\nA rat model of diabetes was established by combination of 6-week HFD and low dose of STZ (30 mg/kg) injection or a single high dose of STZ (65 mg/kg) in SD rats. See generally, K. Srinivasan, B. Viswanad, Lydia Asrat, C. L. Kaul and P. Ramarao, Combination of high-fat diet-fed and low-dose streptozotocin-treated rat: A model for type 2 diabetes and pharmacological screening, Pharmacological Research, 52(4): 313-320, 2005. Rats of the same batch fed with normal chow (NRC) were used as a control.\nThe effect of the aromatic-cationic peptides on the inner blood-retinal barrier function in the SD rat model was investigated."}, "[3]": {"system": "trabecular meshwork cells from non-diseased individuals (HTM)", "assay": "LDH cytotoxicity assay, HTM cells", "assay_type": "cell-based, human", "text": "In this Example, the effects of the aromatic-cationic peptides of the invention were compared between trabecular meshwork cells from POAG patients (GTM) and trabecular meshwork cells from non-diseased individuals (HTM). Methods useful in the studies of the present invention have been described. See generally, He Y, Ge J, Tombran-Tink J., Mitochondrial defects and dysfunction in calcium regulation in glaucomatous trabecular meshwork cells. Invest Ophthalmol Vis Sci. 2008, 49(11):4912-22; He Y, Leung K W, Zhang Y H, Duan S, Zhong X F, Jiang R Z, Peng Z, Tombran-Tink J, Ge J. Mitochondrial complex I defect induces ROS release and degeneration in trabecular meshwork cells of POAG patients: protection by antioxidants. Invest Ophthalmol Vis Sci. 2008, 49(4):1447-58. […]\nTo assess whether D-Arg-2′,6′-Dmt-Lys-Phe-NH2 had cytotoxic effects of HTM or GTM cells, various concentrations of D-Arg-2′,6′-Dmt-Lys-Phe-NH2 were administered to cells and the cytotoxicity was measured using an LDH assay. […] The assay quantitatively measures the stable, cytosolic, lactate dehydrogenase (LDH) enzyme, which is released from damaged cells. The released LDH is measured with a coupled enzymatic reaction that results in the conversion of a tetrazolium salt (iodonitrotetrazolium (INT)) into a red color formazan by diaphorase. […] The LDH activity is determined as NADH oxidation or INT reduction over a defined time period."}, "[4]": {"system": "STZ-treated mice", "assay": "Spatial frequency (SPF) threshold in STZ-treated / diabetic-diet mice", "assay_type": "in vivo", "method": "Subjects were maintained on a normal diet (ND) or diabetic diet (DD) for up to 32 weeks, and were administered D-Arg-2′,6′-Dmt-Lys-Phe-NH2 or control vehicle with or without streptozotocin. Results are shown in FIG. 41, with response values are averaged for each eye."}}}
{"substance": "D-Arg-2′,6′-Dmt-Lys-Phe-NH2", "values": [{"measurement": "survival ratio for HRECs (Q3)", "setting": "[1]; 10 nM co-treatment with 30 mM glucose", "value": 84.3, "unit": "%"}, {"measurement": "survival ratio for HRECs (Q3)", "setting": "[1]; 100 nM co-treatment with 30 mM glucose", "value": 90.7, "unit": "%"}, {"measurement": "survival ratio for HRECs (Q3)", "setting": "[1]; 1 μM co-treatment with 30 mM glucose", "value": 92.8, "unit": "%"}, {"measurement": "survival ratio for HRECs (Q3)", "setting": "[1]; 10 μM co-treatment with 30 mM glucose", "value": 94.3, "unit": "%"}, {"measurement": "survival of HRECs in high glucose", "setting": "[1]; co-treatment, tested at 24 h and 48 h", "value": "significantly improved"}, {"measurement": "inner blood-retinal barrier function", "setting": "[2]", "value": "improved"}, {"measurement": "cytotoxicity", "setting": "[3]; 10^−4M", "value": "no cytotoxicity"}, {"measurement": "viability (LDH assay)", "setting": "[3]; various concentrations", "value": "does not affect the viability"}, {"measurement": "rescue of visual impairment by eyedrop versus systemic administration", "setting": "[4]; STZ-treated animals maintained on a diabetic diet, eyedrop", "value": "one month sooner"}, {"measurement": "time by which the visual deficit was fully rescued", "setting": "[4]; STZ-treated animals, systemic treatment initiated at 12 weeks", "value": "≤ 24", "unit": "weeks"}, {"measurement": "time by which rescue was shown", "setting": "[4]; animals on a diabetic diet alone", "value": "≤ 30", "unit": "weeks"}, {"measurement": "time by which the visual deficit was fully restored", "setting": "[4]; animals on a diabetic diet and administered STZ", "value": "≤ 24", "unit": "weeks"}, {"measurement": "visual impairment (spatial frequency threshold)", "setting": "[4]; animals with metabolic dysfunction", "value": "rescued"}]}
